We go through five compounds from patent publication US12310934B2, “Methods of treatment of spontaneous preterm birth” (The Regents of the University of California, priority 2019, dated 2025).

“Also recorded” adds a separate entry of the source.

One assay relates to preterm birth. The note with it: pregnant women, literature studies; cited from earlier work.
The test system of assay [1] is LPS-induced fetal wastage in pregnant mice. The experiment in a line: LPS-induced inflammation mouse model of fetal wastage. In kind it is in vivo. The note with it: 3× drug + LPS-100 compared with LPS-100 alone. The text has this:
FIG. 3A and FIG. 3B depict results from LPS-induced inflammation mouse model of fetal wastage. Circles represent results from independent mouse pregnancies. Error bars represent mean ±SD. Comparisons were made using the Student's two-sided t-test. […] FIG. 3B: The LPS-100 group compared to the P4 positive control group (3×P4+LPS-100) and the lansoprazole treatment group (3×lansoprazole+LPS-100).
Statistical Analysis. Reversal scores were generated for sPTB-drug pairs using a non-parametric, rank-based method based on the Kolgomorov-Smirnov test. Reversal score p-values were obtained by comparing to a distribution of 100,000 random scores and then adjusted via FDR for multiple comparisons. […] To ensure that the significance of the score is specific to the drug in question, for one candidate drug, lansoprazole, we also compared 1,000 random input signatures to the lansoprazole profile. […] For testing the distributions in the mouse model studies, comparisons were made using the 2-tailed Student's t-test and adjusted via FDR for multiple comparisons. A P value less than 0.05 was considered significant.
Inflammation-induced mouse model validation of lansoprazole. Despite having the highest reversal score, cefotaxime shares few protein interactions. Lansoprazole has the next highest reversal score. Moreover, lansoprazole is available over-the-counter, whereas cefotaxime requires a prescription. […]

As to `Clc1ccccc1C(c1ccccc1)(c1ccccc1)n1ccnc1` [clotrimazole], the “rate of preterm birth in past studies” value in the assay with preterm birth is “significant reduction in the rate of PTB”.

On to `Nc1nc2ncc(CNc3ccc(C(=O)N[C@@H](CCC(=O)O)C(=O)O)cc3)nc2c(=O)[nH]1` [folic acid], for which, in the assay on preterm birth, the “rate of preterm birth in past studies” value is given as “possible reduction of preterm birth”.

For `Cc1c(OCC(F)(F)F)ccnc1C[S+]([O-])c1nc2ccccc2[nH]1` (stereo not drawn) [lansoprazole], the “number of viable fetuses at E12.5” value in assay [1] was “significantly effective in recovering the number of viable fetuses; also recorded: significantly (P<0.05) increase the number of viable fetuses”.

Regarding `CN(C)C(=N)N=C(N)N` [metformin], in the assay on preterm birth, the “rate of preterm birth in past studies” value is given as “reduce the rate of PTB compared with placebo”.

As for `CC(=O)[C@H]1CC[C@H]2[C@@H]3CCC4=CC(=O)CC[C@]4(C)[C@H]3CC[C@]12C` [progesterone], in the assay on preterm birth, the “rate of preterm birth in past studies” value was “effective in reducing the rate of sPTB”. Moreover, in assay [1] (listed as P4), the “number of viable fetuses at E12.5” value is on record as “showed some effectiveness at recovering the number of viable fetuses”.
